Assay results from PubChem BioAssay (NCI).
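Following 48 hours of exposure in 96-well plates, responses at five concentrations were used to interpolate endpoints linearly. Abbreviation: GI50, concentration required for 50% inhibition of growth. Definition used: TGI = concentration required for complete inhibition of growth.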

What was measured:
Assay in all cases: NCI anticancer screen, dose series, 48 h
SK-MEL-2 melanoma = test system: SK-MEL-2 melanoma
A498 renal = test system: A498 renal
HT29 colon = test system: HT29 colon
MDA-MB-468 breast = test system: MDA-MB-468 breast
SK-MEL-28 melanoma = test system: SK-MEL-28 melanoma
EKVX NSCLC = test system: EKVX NSCLC
U251 CNS = test system: U251 CNS
SF-295 CNS = test system: SF-295 CNS
MOLT-4 leukemia = test system: MOLT-4 leukemia
TK-10 renal = test system: TK-10 renal
SNB-75 CNS = test system: SNB-75 CNS
MDA-MB-435 = test system: MDA-MB-435
HL-60(TB) leukemia = test system: HL-60(TB) leukemia
SNB-19 CNS = test system: SNB-19 CNS
MCF7 breast = test system: MCF7 breast
OVCAR-3 ovarian = test system: OVCAR-3 ovarian
MALME-3M melanoma = test system: MALME-3M melanoma
CAKI-1 renal = test system: CAKI-1 renal
UACC-62 melanoma = test system: UACC-62 melanoma
SK-MEL-5 melanoma = test system: SK-MEL-5 melanoma
M14 melanoma = test system: M14 melanoma
BT-549 breast = test system: BT-549 breast
ACHN renal = test system: ACHN renal
OVCAR-5 ovarian = test system: OVCAR-5 ovarian
RXF 393 renal = test system: RXF 393 renal
HCT-116 colon = test system: HCT-116 colon
RPMI-8226 leukemia = test system: RPMI-8226 leukemia
SF-539 CNS = test system: SF-539 CNS
NCI-H460 lung = test system: NCI-H460 lung
SN12C renal = test system: SN12C renal
A549 NSCLC = test system: A549 NSCLC
NCI/ADR-RES ovarian = test system: NCI/ADR-RES ovarian
NCI-H226 lung = test system: NCI-H226 lung
OVCAR-4 ovarian = test system: OVCAR-4 ovarian
HCC-2998 colon = test system: HCC-2998 colon
HCT-15 colon = test system: HCT-15 colon
786-0 renal = test system: 786-0 renal
PC-3 prostate = test system: PC-3 prostate
MDA-MB-231 breast = test system: MDA-MB-231 breast
HOP-92 NSCLC = test system: HOP-92 NSCLC
LOX IMVI melanoma = test system: LOX IMVI melanoma
UO-31 renal = test system: UO-31 renal
IGROV1 ovarian = test system: IGROV1 ovarian
K-562 leukemia = test system: K-562 leukemia
OVCAR-8 ovarian = test system: OVCAR-8 ovarian
NCI-H23 lung = test system: NCI-H23 lung
HOP-62 NSCLC = test system: HOP-62 NSCLC
HS 578T breast = test system: HS 578T breast
SK-OV-3 ovarian = test system: SK-OV-3 ovarian
SW-620 colon = test system: SW-620 colon
T-47D breast = test system: T-47D breast
SF-268 CNS = test system: SF-268 CNS
NCI-H522 lung = test system: NCI-H522 lung
DU-145 prostate = test system: DU-145 prostate
COLO 205 colon = test system: COLO 205 colon
UACC-257 melanoma = test system: UACC-257 melanoma
CCRF-CEM leukemia = test system: CCRF-CEM leukemia
KM12 colon = test system: KM12 colon

Cc1ccccc1[C@H]1C(C(=O)c2ccc(Cl)cc2)C2(N[C@@H]1c1ccccc1)C(=O)Nc1ccc(Cl)cc12 (stereo partly specified)
GI50 (SK-MEL-2 melanoma): 5.31 µM | TGI (SK-MEL-2 melanoma): 10.5 µM | GI50 (A498 renal): 6.28 µM | TGI (A498 renal): 12.5 µM | GI50 (HT29 colon): 5.58 µM | TGI (HT29 colon): 11.4 µM | GI50 (MDA-MB-468 breast): 4.98 µM | TGI (MDA-MB-468 breast): 10.1 µM | GI50 (SK-MEL-28 melanoma): 6.26 µM | TGI (SK-MEL-28 melanoma): 11.8 µM | GI50 (EKVX NSCLC): 4.15 µM | TGI (EKVX NSCLC): 8.85 µM | GI50 (U251 CNS): 5.85 µM | TGI (U251 CNS): 11.7 µM | GI50 (SF-295 CNS): 5.21 µM | TGI (SF-295 CNS): 10.2 µM | GI50 (MOLT-4 leukemia): 4.93 µM | TGI (MOLT-4 leukemia): 16.9 µM | GI50 (TK-10 renal): 5.3 µM | TGI (TK-10 renal): 10.6 µM | GI50 (SNB-75 CNS): 4.37 µM | TGI (SNB-75 CNS): 12.6 µM | GI50 (MDA-MB-435): 6.04 µM | TGI (MDA-MB-435): 12.1 µM | GI50 (HL-60(TB) leukemia): 9.94 µM | TGI (HL-60(TB) leukemia): 24.2 µM | GI50 (SNB-19 CNS): 6.07 µM | TGI (SNB-19 CNS): 11.6 µM | GI50 (MCF7 breast): 4.47 µM | TGI (MCF7 breast): 9.78 µM | GI50 (OVCAR-3 ovarian): 3.68 µM | TGI (OVCAR-3 ovarian): 9.82 µM | GI50 (MALME-3M melanoma): 5.63 µM | TGI (MALME-3M melanoma): 10.9 µM | GI50 (CAKI-1 renal): 4.23 µM | TGI (CAKI-1 renal): 9.47 µM | GI50 (UACC-62 melanoma): 4.6 µM | TGI (UACC-62 melanoma): 9.56 µM | GI50 (SK-MEL-5 melanoma): 6.09 µM | TGI (SK-MEL-5 melanoma): 11.7 µM | GI50 (M14 melanoma): 6.5 µM | TGI (M14 melanoma): 12.6 µM | GI50 (BT-549 breast): 5.49 µM | TGI (BT-549 breast): 10.9 µM | GI50 (ACHN renal): 5.89 µM | TGI (ACHN renal): 11.1 µM | GI50 (OVCAR-5 ovarian): 5.39 µM | TGI (OVCAR-5 ovarian): 10.6 µM | GI50 (RXF 393 renal): 1.89 µM | TGI (RXF 393 renal): 7.25 µM | GI50 (HCT-116 colon): 5.04 µM | TGI (HCT-116 colon): 10.2 µM | GI50 (RPMI-8226 leukemia): 8.18 µM | TGI (RPMI-8226 leukemia): 30.2 µM | GI50 (SF-539 CNS): 6.2 µM | TGI (SF-539 CNS): 11.7 µM | GI50 (NCI-H460 lung): 7.5 µM | TGI (NCI-H460 lung): 19.5 µM | GI50 (SN12C renal): 4.96 µM | TGI (SN12C renal): 9.93 µM | GI50 (A549 NSCLC): 5.63 µM | TGI (A549 NSCLC): 11.5 µM | GI50 (NCI/ADR-RES ovarian): 5.64 µM | TGI (NCI/ADR-RES ovarian): 11.4 µM | GI50 (NCI-H226 lung): 5.47 µM | TGI (NCI-H226 lung): 11.2 µM | GI50 (OVCAR-4 ovarian): 5.74 µM | TGI (OVCAR-4 ovarian): 13.7 µM | GI50 (HCC-2998 colon): 5.38 µM | TGI (HCC-2998 colon): 10.5 µM | GI50 (HCT-15 colon): 5.56 µM | TGI (HCT-15 colon): 11.1 µM | GI50 (786-0 renal): 5.75 µM | TGI (786-0 renal): 11.1 µM | GI50 (PC-3 prostate): 4.02 µM | TGI (PC-3 prostate): 10.6 µM | GI50 (MDA-MB-231 breast): 5.25 µM | TGI (MDA-MB-231 breast): 10.4 µM | GI50 (HOP-92 NSCLC): 4.07 µM | TGI (HOP-92 NSCLC): 9.11 µM | GI50 (LOX IMVI melanoma): 5.45 µM | TGI (LOX IMVI melanoma): 10.5 µM | GI50 (UO-31 renal): 4.48 µM | TGI (UO-31 renal): 9.28 µM | GI50 (IGROV1 ovarian): 4.58 µM | TGI (IGROV1 ovarian): 9.64 µM | GI50 (K-562 leukemia): 7.49 µM | TGI (K-562 leukemia): 36.4 µM | GI50 (OVCAR-8 ovarian): 6.41 µM | TGI (OVCAR-8 ovarian): 14.5 µM | GI50 (NCI-H23 lung): 5.54 µM | TGI (NCI-H23 lung): 11.1 µM | GI50 (HOP-62 NSCLC): 5.88 µM | TGI (HOP-62 NSCLC): 11.3 µM | GI50 (HS 578T breast): 6.79 µM | TGI (HS 578T breast): 39.5 µM | GI50 (SK-OV-3 ovarian): 5.88 µM | TGI (SK-OV-3 ovarian): 12.2 µM | GI50 (SW-620 colon): 6.97 µM | TGI (SW-620 colon): 20 µM | GI50 (T-47D breast): 3.66 µM | TGI (T-47D breast): 8.83 µM | GI50 (SF-268 CNS): 4.74 µM | TGI (SF-268 CNS): 12.1 µM | GI50 (NCI-H522 lung): 5.52 µM | TGI (NCI-H522 lung): 10.8 µM | GI50 (DU-145 prostate): 6.11 µM | TGI (DU-145 prostate): 12.7 µM | GI50 (COLO 205 colon): 5.56 µM | TGI (COLO 205 colon): 10.9 µM | GI50 (UACC-257 melanoma): 5.82 µM | TGI (UACC-257 melanoma): 11.6 µM | GI50 (CCRF-CEM leukemia): 9.04 µM | TGI (CCRF-CEM leukemia): 36.8 µM | GI50 (KM12 colon): 6.06 µM | TGI (KM12 colon): 13.5 µM
